Results published in US20250313820A1, “PEPTIDES WITH MULTIVALENT EFFECTS” (In2Cure AB, priority 2021, published 2025).
Where two headings read alike, the source gives them in different places. Marks after values point to notes of the source that are not given here. Where a SMILES comes first, the peptide text is derived from it. Bridges are numbered along the chain shown (N, C = ends). [ ]: non-standard residue; d: D form. S5 = C=CCCC[C@](C)(N)C(=O)O

Tests used:
erythrocytes (RBCs) = type: cell-based, human; conditions: for Hemolytic activity, lysed RBCs: 1 h
Protocol: (§1) Fresh venous blood from healthy donors was collected in lepirudine tubes (50 μg mL-1). Then 50 μL of blood were transferred to round-bottom 96-wells plate containing 150 μL of peptides previously diluted in RPMI-1640—GlutaMAX-I without phenol red (Gibco). 1:4 diluted blood was used as control. 50 μL of blood mixed with 150 μl 5% Tween-20 were used as positive control. After 1 h incubation at 37° C. and 5% CO2, the plate was centrifuged at 800 g, 150 μL of each sample were transferred to a flat-bottom 96-wells plate and the absorbance at 450 nm was measured. The percentage of hemolysis was calculated following the formula reported below: […]
To evaluate the hemolytic effect of the peptides on erythrocytes the blood was collected as reported above and centrifuged at 250 g for 10 min. Then plasma was discarded, and red blood cells were washed with 150 mM NaCl in 10 mM Tris pH 7.4 for three times. Next, the pellet was dilute 100 times with saline Tris buffer. 100 μL of this solution were added to round-bottom 96-wells plate containing 100 μL of peptides previously diluted in saline Tris buffer. After 1 h incubation at 37° C. and 5% CO2, the plate was centrifuged and the absorbance at 450 nm was measured, then the percentage of erythrocyte lysis was determined using formula reported above.
(§2) Data shown are mean values±SEM obtained from at least four independent experiments all made in triplicate. For each experiment blood from a different donor was used.

whole blood = type: cell-based, human; conditions: 1 h
Protocol: as §1, §2

Compound | Hemolytic activity, lysed RBCs (erythrocytes (RBCs)) [%] | Hemolytic activity, lysed RBCs in whole blood (whole blood) [%] | hemolytic activity, RBCs or whole blood (heatmaps FIG. 4, FIG. 20a), in words (erythrocytes (RBCs)) | Hemolytic activity, lysed RBCs (erythrocytes (RBCs); 50 μM) [%] | Hemolytic activity, lysed RBCs in whole blood (whole blood; 50 μM)
CC[C@H](C)[C@H](NC(=O)[C@H](Cc1c[nH]c2ccccc12)NC(=O)[C@H](CCCCN)NC(=O)[C@H](CCCCN)NC(=O)[C@H](CC(C)C)NC(=O)[C@H](CCCNC(=N)N)NC(=O)[C@H](Cc1ccccc1)NC(=O)[C@@H](NC(=O)[C@H](CCCCN)NC(=O)[C@@H](N)CCCCN)C(C)C)C(=O)N[C@@]1(C)CCCC=CCCC[C@@](C)(C(=O)N[C@@H](CCC(N)=O)C(=O)N[C@@H](Cc2ccccc2)C(=O)NCC(=O)N[C@@H](CCC(=O)O)C(=O)O)NC(=O)[C@H]([C@@H](C)CC)NC(=O)[C@H](C(C)C)NC(=O)[C@H](CCCCN)NC1=O [sKKVF18, KKVFRLKKWIX1KVIX2QFGE] (H-KKVFRLKKWI[S5]KVI[S5]QFGE-OH; staple 11-15) | 27.8 ± 3.0 | <1 |  |  | 
CC[C@H](C)[C@H](NC(=O)[C@H](Cc1c[nH]c2ccccc12)NC(=O)[C@H](CCCCN)NC(=O)[C@H](CCCCN)NC(=O)[C@H](CC(C)C)NC(=O)[C@H](CCCNC(=N)N)NC(=O)[C@H](Cc1ccccc1)NC(=O)[C@@H](NC(=O)[C@H](CCCNC(=N)N)NC(=O)[C@H](CCCNC(=N)N)NC(=O)[C@@H](N)CCCNC(=N)N)C(C)C)C(=O)N[C@@]1(C)CCCC=CCCC[C@@](C)(C(=O)N[C@@H](CCC(N)=O)C(=O)N[C@@H](Cc2ccccc2)C(=O)NCC(=O)N[C@@H](CCC(=O)O)C(=O)O)NC(=O)[C@H]([C@@H](C)CC)NC(=O)[C@H](C(C)C)NC(=O)[C@H](CCCCN)NC1=O [sRRRVF18, RRRVFRLKKWIX1KVIX2QFGE] (H-RRRVFRLKKWI[S5]KVI[S5]QFGE-OH; staple 12-16) | 61.5 ± 6.2 | <1 |  |  | 
CC[C@H](C)[C@H](NC(=O)[C@H](Cc1c[nH]c2ccccc12)NC(=O)[C@H](CCCCN)NC(=O)[C@H](CCCCN)NC(=O)[C@H](CC(C)C)NC(=O)[C@H](CCCNC(=N)N)NC(=O)[C@H](Cc1ccccc1)NC(=O)[C@@H](NC(=O)[C@H](CCCCN)NC(=O)[C@H](CCCCN)NC(=O)[C@@H](N)CCCCN)C(C)C)C(=O)N[C@@]1(C)CCCC=CCCC[C@@](C)(C(=O)N[C@@H](CCC(N)=O)C(=O)N[C@@H](Cc2ccccc2)C(=O)NCC(=O)N[C@@H](CCC(=O)O)C(=O)O)NC(=O)[C@H]([C@@H](C)CC)NC(=O)[C@H](C(C)C)NC(=O)[C@H](CCCCN)NC1=O [sKKKVF18, KKKVFRLKKWIX1KVIX2QFGE] (H-KKKVFRLKKWI[S5]KVI[S5]QFGE-OH; staple 12-16) | 47.1 ± 8.1 | <1 |  |  | 
CC[C@H](C)[C@H](NC(=O)[C@H](Cc1c[nH]c2ccccc12)NC(=O)[C@H](CCCCN)NC(=O)[C@@H](N)CCCCN)C(=O)N[C@@]1(C)CCCC=CCCC[C@@](C)(C(=O)N[C@@H](CCC(N)=O)C(=O)N[C@@H](Cc2ccccc2)C(=O)NCC(=O)N[C@@H](CCC(=O)O)C(=O)O)NC(=O)[C@H]([C@@H](C)CC)NC(=O)[C@H](C(C)C)NC(=O)[C@H](CCCCN)NC1=O [sKKW13, KKWIX1KVIX2QFGE] (H-KKWI[S5]KVI[S5]QFGE-OH; staple 5-9) |  |  | low hemolytic activity |  | 
CC[C@H](C)[C@H](NC(=O)[C@H](Cc1c[nH]c2ccccc12)NC(=O)[C@H](CCCCN)NC(=O)[C@H](CCCCN)NC(=O)[C@H](CC(C)C)NC(=O)[C@H](CCCNC(=N)N)NC(=O)[C@H](Cc1ccccc1)NC(=O)[C@@H](NC(=O)[C@@H](N)Cc1cnc[nH]1)C(C)C)C(=O)N[C@@H](CCC(N)=O)C(=O)N[C@@H](CCCCN)C(=O)N[C@H](C(=O)N[C@H](C(=O)N[C@@H](CC(=O)O)C(=O)N[C@@H](CCC(N)=O)C(=O)N[C@@H](Cc1ccccc1)C(=O)NCC(=O)N[C@@H](CCC(=O)O)C(=O)O)[C@@H](C)CC)C(C)C [HVF18, reference compound] (H-HVFRLKKWIQKVIDQFGE-OH) |  |  |  | 28.5 ± 3.0 | <1* %
CC[C@H](C)[C@H](NC(=O)[C@H](Cc1c[nH]c2ccccc12)NC(=O)[C@H](CCCCN)NC(=O)[C@H](CCCCN)NC(=O)[C@H](CC(C)C)NC(=O)[C@H](CCCNC(=N)N)NC(=O)[C@H](Cc1ccccc1)NC(=O)[C@@H](NC(=O)[C@H](CCCNC(=N)N)NC(=O)[C@H](CCCNC(=N)N)NC(=O)[C@H](CCCNC(=N)N)NC(=O)[C@@H](N)CCCNC(=N)N)C(C)C)C(=O)N[C@@]1(C)CCCC=CCCC[C@@](C)(C(=O)N[C@@H](CCC(N)=O)C(=O)N[C@@H](Cc2ccccc2)C(=O)NCC(=O)N[C@@H](CCC(=O)O)C(=O)O)NC(=O)[C@H]([C@@H](C)CC)NC(=O)[C@H](C(C)C)NC(=O)[C@H](CCCCN)NC1=O [sRRRRVF18, RRRRVFRLKKWIX1KVIX2QFGE] (H-RRRRVFRLKKWI[S5]KVI[S5]QFGE-OH; staple 13-17) | 64.9 ± 11.4 | <1 |  |  | 
CC[C@H](C)[C@H](NC(=O)[C@H](Cc1c[nH]c2ccccc12)NC(=O)[C@H](CCCCN)NC(=O)[C@H](CCCCN)NC(=O)[C@H](CC(C)C)NC(=O)[C@H](CCCNC(=N)N)NC(=O)[C@H](Cc1ccccc1)NC(=O)[C@@H](NC(=O)[C@H](CCCNC(=N)N)NC(=O)[C@@H](N)CCCNC(=N)N)C(C)C)C(=O)N[C@@]1(C)CCCC=CCCC[C@@](C)(C(=O)N[C@@H](CCC(N)=O)C(=O)N[C@@H](Cc2ccccc2)C(=O)NCC(=O)N[C@@H](CCC(=O)O)C(=O)O)NC(=O)[C@H]([C@@H](C)CC)NC(=O)[C@H](C(C)C)NC(=O)[C@H](CCCCN)NC1=O [sRRVF18, RRVFRLKKWIX1KVIX2QFGE] (H-RRVFRLKKWI[S5]KVI[S5]QFGE-OH; staple 11-15) | 49.1 ± 4.9 | <1 |  |  | 
CC[C@H](C)[C@H](NC(=O)[C@H](Cc1c[nH]c2ccccc12)NC(=O)[C@H](CCCCN)NC(=O)[C@H](CCCCN)NC(=O)[C@H](CC(C)C)NC(=O)[C@H](CCCNC(=N)N)NC(=O)[C@H](Cc1ccccc1)NC(=O)[C@@H](NC(=O)[C@@H](N)CCCNC(=N)N)C(C)C)C(=O)N[C@@]1(C)CCCC=CCCC[C@@](C)(C(=O)N[C@@H](CCC(N)=O)C(=O)N[C@@H](Cc2ccccc2)C(=O)NCC(=O)N[C@@H](CCC(=O)O)C(=O)O)NC(=O)[C@H]([C@@H](C)CC)NC(=O)[C@H](C(C)C)NC(=O)[C@H](CCCCN)NC1=O [sRVF18, RVFRLKKWIXKVIXQFGE] (H-RVFRLKKWI[S5]KVI[S5]QFGE-OH; staple 10-14) | 53.6 ± 3.8 | <1 |  |  | 
CC[C@H](C)[C@H](NC(=O)[C@H](Cc1c[nH]c2ccccc12)NC(=O)[C@H](CCCCN)NC(=O)[C@H](CCCCN)NC(=O)[C@H](CC(C)C)NC(=O)[C@H](CCCNC(=N)N)NC(=O)[C@H](Cc1ccccc1)NC(=O)[C@@H](NC(=O)[C@@H](N)CCCCN)C(C)C)C(=O)N[C@@]1(C)CCCC=CCCC[C@@](C)(C(=O)N[C@@H](CCC(N)=O)C(=O)N[C@@H](Cc2ccccc2)C(=O)NCC(=O)N[C@@H](CCC(=O)O)C(=O)O)NC(=O)[C@H]([C@@H](C)CC)NC(=O)[C@H](C(C)C)NC(=O)[C@H](CCCCN)NC1=O [sKVF18, KVFRLKKWIXKVIXQFGE] (H-KVFRLKKWI[S5]KVI[S5]QFGE-OH; staple 10-14) | 51.4 ± 4.9 | <1 |  |  | 
CC[C@H](C)[C@H](NC(=O)[C@H](Cc1c[nH]c2ccccc12)NC(=O)[C@H](CCCCN)NC(=O)[C@H](CCCCN)NC(=O)[C@@H](N)CC(C)C)C(=O)N[C@@]1(C)CCCC=CCCC[C@@](C)(C(=O)N[C@@H](CCC(N)=O)C(=O)N[C@@H](Cc2ccccc2)C(=O)NCC(=O)N[C@@H](CCC(=O)O)C(=O)O)NC(=O)[C@H]([C@@H](C)CC)NC(=O)[C@H](C(C)C)NC(=O)[C@H](CCCCN)NC1=O [sLKK14, LKKWIX1KVIX2QFGE] (H-LKKWI[S5]KVI[S5]QFGE-OH; staple 6-10) |  |  | low hemolytic activity |  | 
CC[C@H](C)[C@H](NC(=O)[C@H](Cc1c[nH]c2ccccc12)NC(=O)[C@H](CCCCN)NC(=O)[C@H](CCCCN)NC(=O)[C@H](CC(C)C)NC(=O)[C@H](CCCNC(=N)N)NC(=O)[C@H](Cc1ccccc1)NC(=O)[C@@H](NC(=O)[C@H](CCCCN)NC(=O)[C@H](CCCCN)NC(=O)[C@H](CCCCN)NC(=O)[C@@H](N)CCCCN)C(C)C)C(=O)N[C@@]1(C)CCCC=CCCC[C@@](C)(C(=O)N[C@@H](CCC(N)=O)C(=O)N[C@@H](Cc2ccccc2)C(=O)NCC(=O)N[C@@H](CCC(=O)O)C(=O)O)NC(=O)[C@H]([C@@H](C)CC)NC(=O)[C@H](C(C)C)NC(=O)[C@H](CCCCN)NC1=O [sKKKKVF18, KKKKVFRLKKWIX1KVIX2QFGE] (H-KKKKVFRLKKWI[S5]KVI[S5]QFGE-OH; staple 13-17) | 39.1 ± 5.4 | <1 |  |  | 
